Here are results for five compounds from patent publication US20250034216A1, “STEREOSELECTIVE COVALENT LIGANDS FOR ONCOGENIC AND IMMUNOLOGICAL PROTEINS” (The Scripps Research Institute, priority 2021, published 2025).

The structures appear in SMILES notation.

Holding throughout (assay): IA-DTB cysteine engagement
What all share (type): binding

One test deals with T1, SLC25A20_C283 (Homo sapiens, UniProt O43772).
T1 construct: endogenous in cells; host or cells: 22Rv1
T1 sequence (O43772 1-301): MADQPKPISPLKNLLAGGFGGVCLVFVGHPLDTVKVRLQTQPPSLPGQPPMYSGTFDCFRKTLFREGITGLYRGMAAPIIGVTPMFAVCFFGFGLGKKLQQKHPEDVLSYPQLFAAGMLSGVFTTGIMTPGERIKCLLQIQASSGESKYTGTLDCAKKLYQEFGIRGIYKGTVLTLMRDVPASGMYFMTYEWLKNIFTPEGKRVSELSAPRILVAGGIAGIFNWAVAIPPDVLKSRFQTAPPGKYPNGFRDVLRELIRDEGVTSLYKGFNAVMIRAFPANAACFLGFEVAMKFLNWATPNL
The conditions noted are these: 22Rv1 cells, relative to DMSO; for % engagement SLC25A20_283: 5 μM probe, 1 h (FIG. 5B); for % engagement SLC25A20_C283: 20 μM probe, 1 h. In short, it runs like this: (§1)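 First, cells are exposed to electrophilic probes in situ. Next, lysates are labeled with IA-DTB (1 h, ambient temperature), reduced, alkylated and trypsin-digested. Then, IA-DTB peptides are enriched on streptavidin, TMT-labeled and analyzed, with ratios taken against DMSO channels.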

The next test addresses T2, FABP5_C127 (Homo sapiens, UniProt Q01469).
T2 construct: endogenous in cells; host or cells: 22Rv1
The conditions noted are these: 22Rv1 cells, 20 μM probe, 1 h, relative to DMSO. In outline: as §1

The target of the next test is T3, NT5DC2_C507 (Homo sapiens, UniProt Q9H857).
T3 construct: endogenous in cells; host or cells: 22Rv1
T3 sequence (Q9H857 1-520): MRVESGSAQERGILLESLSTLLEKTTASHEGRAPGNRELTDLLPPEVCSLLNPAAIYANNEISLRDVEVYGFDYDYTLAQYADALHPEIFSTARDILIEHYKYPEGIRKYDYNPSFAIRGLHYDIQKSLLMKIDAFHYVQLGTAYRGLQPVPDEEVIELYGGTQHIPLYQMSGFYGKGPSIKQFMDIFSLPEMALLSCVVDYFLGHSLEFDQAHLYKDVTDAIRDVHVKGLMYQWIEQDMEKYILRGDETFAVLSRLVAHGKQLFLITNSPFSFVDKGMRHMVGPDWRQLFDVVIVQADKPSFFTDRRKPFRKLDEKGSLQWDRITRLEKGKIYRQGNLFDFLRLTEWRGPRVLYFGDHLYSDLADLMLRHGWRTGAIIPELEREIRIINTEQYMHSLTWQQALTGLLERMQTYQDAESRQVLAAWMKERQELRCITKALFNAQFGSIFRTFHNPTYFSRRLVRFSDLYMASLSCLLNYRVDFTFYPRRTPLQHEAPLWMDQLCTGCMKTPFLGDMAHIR
The conditions noted are these: 22Rv1 cells, 20 μM probe, 1 h, relative to DMSO. In outline: as §1

A further test addresses T4, RAB39B_C23 (Homo sapiens, UniProt Q96DA2).
T4 construct: endogenous in cells; host or cells: 22Rv1
T4 sequence (Q96DA2 1-213): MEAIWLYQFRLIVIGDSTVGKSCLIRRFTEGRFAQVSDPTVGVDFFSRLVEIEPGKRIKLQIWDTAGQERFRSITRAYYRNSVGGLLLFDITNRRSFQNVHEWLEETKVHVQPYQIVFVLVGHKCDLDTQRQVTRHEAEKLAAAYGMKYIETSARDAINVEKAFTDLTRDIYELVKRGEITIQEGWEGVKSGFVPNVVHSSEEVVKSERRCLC
The conditions noted are these: 22Rv1 cells, 20 μM probe, 1 h, relative to DMSO. In outline: as §1

Another test has as its target T5, MRPS30_C204 (Homo sapiens, UniProt Q9NP92).
T5 construct: endogenous in cells; host or cells: 22Rv1
The conditions noted are these: 22Rv1 cells, 20 μM probe, 1 h, relative to DMSO. In outline:
as §1

Another test has as its target T6, TMEM50A_C13 (Homo sapiens, UniProt O95807).
T6 construct: endogenous in cells; host or cells: 22Rv1
The conditions noted are these: 22Rv1 cells, 20 μM probe, 1 h, relative to DMSO. In short, it runs like this: as §1

T6 sequence (O95807 whole entry): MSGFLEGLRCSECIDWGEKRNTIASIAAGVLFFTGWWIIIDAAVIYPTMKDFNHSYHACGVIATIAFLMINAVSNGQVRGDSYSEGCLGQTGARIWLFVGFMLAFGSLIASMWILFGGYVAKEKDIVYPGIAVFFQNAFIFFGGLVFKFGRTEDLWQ
T2 sequence (Q01469 whole entry): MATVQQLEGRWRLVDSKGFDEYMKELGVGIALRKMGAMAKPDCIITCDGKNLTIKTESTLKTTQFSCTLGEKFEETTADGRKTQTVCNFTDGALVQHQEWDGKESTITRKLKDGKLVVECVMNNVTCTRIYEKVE

Take `CC#CC(=O)N1C[C@H](c2ccc(Br)cc2)[C@@H]1C(=O)Nc1cccc2cccnc12` [MY-45B, (2R,3S)-3-(4-bromophenyl)-1-(but-2-ynoyl)-N-(quinolin-8-yl)azetidine-2-carboxamide]: on SLC25A20_C283, the “% engagement SLC25A20_283” value amounted to 20.50%.

For `C=CC(=O)N1C[C@H](c2ccc(Br)cc2)[C@@H]1C(=O)Nc1cccc2cccnc12` [MY-1B, (2R,3S)-1-acryloyl-3-(4-bromophenyl)-N-(quinolin-8-yl)azetidine-2-carboxamide], the “% engagement FABP5_C127” value at FABP5_C127 was determined as 73%. Besides, the “% engagement NT5DC2_C507” value on NT5DC2_C507 is on record as 67.25%. In addition, on SLC25A20_C283, the “% engagement SLC25A20_283” value worked out at 82.75% and the “% engagement SLC25A20_C283” value stood at 92%. The “% engagement RAB39B_C23” value at RAB39B_C23 is recorded as 18.5%. Further, the “% engagement MRPS30_C204” value at MRPS30_C204 was −37%. Also, the “% engagement TMEM50A_C13” value at TMEM50A_C13 was 58%.

With `C=CC(=O)N1C[C@H](c2ccc(Br)cc2)[C@H]1C(=O)Nc1cccc2cccnc12` [MY-3B, (2S,3S)-1-acryloyl-3-(4-bromophenyl)-N-(quinolin-8-yl)azetidine-2-carboxamide], the “% engagement FABP5_C127” value on FABP5_C127 is listed as −60.5%. Also, the “% engagement NT5DC2_C507” value at NT5DC2_C507 amounted to 57.5%. The “% engagement SLC25A20_C283” value at SLC25A20_C283 is listed as −241%. For the same compound, the “% engagement RAB39B_C23” value at RAB39B_C23 is on record as 67%. The “% engagement MRPS30_C204” value at MRPS30_C204 was −41.5%. Further, the “% engagement TMEM50A_C13” value on TMEM50A_C13 was 68.5%.

`C=CC(=O)N1C[C@H](c2ccc(Br)cc2)[C@H]1C(=O)Nc1cccc2cccnc12` [MY-3A, (2S,3S)-1-acryloyl-3-(4-bromophenyl)-N-(quinolin-8-yl)azetidine-2-carboxamide]: at FABP5_C127, the “% engagement FABP5_C127” value was −13%. Besides, on NT5DC2_C507, the “% engagement NT5DC2_C507” value is listed as 50.5%. Also, the “% engagement SLC25A20_C283” value at SLC25A20_C283 is 66%. Also, the “% engagement RAB39B_C23” value on RAB39B_C23 is recorded as −53%. In addition, on MRPS30_C204, the “% engagement MRPS30_C204” value is reported as 1%. The “% engagement TMEM50A_C13” value on TMEM50A_C13 is recorded as 60.5%.

`C=CC(=O)N1C[C@@H](c2ccc(Br)cc2)[C@H]1C(=O)Nc1cccc2cccnc12` [MY-1A, (2S,3R)-1-acryloyl-3-(4-bromophenyl)-N-(quinolin-8-yl)azetidine-2-carboxamide]: the “% engagement FABP5_C127” value on FABP5_C127 is reported as 0%. Moreover, the “% engagement NT5DC2_C507” value on NT5DC2_C507 came to 83.75%. The “% engagement SLC25A20_C283” value at SLC25A20_C283 was 37%. In addition, the “% engagement RAB39B_C23” value on RAB39B_C23 came out at 24.5%. Further, the “% engagement MRPS30_C204” value on MRPS30_C204 is reported as 74.5%. On TMEM50A_C13, the “% engagement TMEM50A_C13” value is listed as 63.5%.
